Measurements from patent US8771983B2, “Method and kit for expressing protein under regulation of the expression from repeated sequence formed by gene amplification, and transformant” (National University of Corporation Hiroshima University, priority 2004, dated 2014).

How the values were obtained:
[1] = tested on: expression of d2EGFP in human colon cancer cells COLO 320DM cells; test: Level of expression of d2EGFP after treatment of cells with 5-aza-2′-deoxycytidine and/or Trichostatin A (Example 6); format: cell-based; conditions: for accumulated fluorescence intensity / average fluorescence intensity: 3 days
Experimental: Fluorescence intensity of these cells were measured by using a cell sorter. The measurement was carried out by sorting 20,000 cells by setting living cells at a gate. The cell sorter used was made by Becton Dickinson, and operated under conditions as described in the manual attached thereto.
In this method for detecting the fluorescence intensity, detection limit was 1, and all fluorescence intensities of 1 or less would be detected as 1. In view of this, a product of a ratio (cell %) of cells of fluorescence intensities of 2 or more in all living cells (10,000 cells) and an average of the fluorescence intensities of the cells having fluorescence intensities of 2 or more was calculated out for each experimental plot. This product is referred to as “accumulated fluorescence intensity” hereinafter and in later Examples and shown in boxed letter in the figures.
A mixture of a plasmid (pSFVdhfr/d2EGFP) and the plasmid DNA having the Aves-derived HS4 insulator sequence was transfected to human colon cancer cells COLO 320DM cells by lipofection. The plasmid (pSFVdhfr/d2EGFP) was a plasmid having (a) IR and MAR derived from human DHFR gene locus, (b) Blasticidin tolerance gene, and (c) d2EGFP gene that was under control of TRE-promoter (Tetracycline inducing promoter). The plasmid DNA having the Aves-derived HS4 insulator sequence was identical with the one described in Example 2. From 2 days later since the gene transfection, the cells were selected with 5 μg/ml of Blasticidin (Funakoshi Corp.). After 3 to 4 weeks, many colonies of transformed cells were obtained.
Into a culture solution of the transformed cells, of 1 μM or 3 μM of 5-aza-2′ deoxycytidine (hereinafter referred to as “5-aza” where appropriate; Sigma) was added. Thereby, the cells were treated with 5-aza for 3 days. For comparison purposes, 20 nM of Trichostatin A (hereinafter referred to as “TSA” where appropriate; histone deacetylation inhibitor, Sigma), which is known as a material for increasing gene expression from the repeated sequence, was added to some culture solutions of the transformed cells and analyzed.

[2] = tested on: expression of d2EGFP in human colon cancer COLO 320DM cells; test: Level of expression of d2EGFP by cell sorter in DM clone treated with 5-aza (Example 9); format: cell-based; conditions: DM clone treated with 3 μM of 5-aza for 3 days, then Doxycycline 1 μg/ml for 2 days
Excerpt: An equimolar mixture of a plasmid (pSFVdhfr/d2EGFP) and pTet-ON plasmid (Clontech Laboratories Inc.) was simultaneously transfected into human colon cancer COLO 320DM cells. The plasmid (pSFVdhfr/d2EGFP) was a plasmid having (a) IR and MAR derived from human DHFR gene locus, (b) Blasticidin tolerance gene, and (c) d2EGFP gene that was under control of TRE-promoter (Tetracycline inducing promoter). Meanwhile, the pTet-ON plasmid was a plasmid having Tet-ON gene encoding the transcription activating factor (Tet-ON protein) of TRE-promoter. The cells were selected with 5 μg/ml of Blasticidin thereby obtaining a polyclonal population of transformed cells. […] In FIG. 20, the detected base sequence derived from the pSFVdhfr/d2EGFP plasmid is indicated by the arrow. […]
In each culture solution of the two clones, 3 μM of 5-aza was added and thereby the clones were treated with 5-aza for 3 days. […] After the culturing, the level of the expression of d2EGFP in each clone was analyzed by a cell sorter. […] This polyclonal population of transformed cells was subjected to the induction of expression of d2EGFP with Doxycycline and a level of the expression of d2EGFP therein was analyzed by using the cell sorter in the same way as described above. […] FIG. 21(a) illustrates the result of the fluorescence intensity measurements of HSR clone two days after the addition of Doxycycline. […]

Nc1ncn([C@H]2C[C@H](O)[C@@H](CO)O2)c(=O)n1 [5-aza, 5-aza-2′-deoxycytidine]
accumulated fluorescence intensity ([1]; 1 μM of 5-aza): 895 | average fluorescence intensity ([1]; 1 μM of 5-aza): 9.48 | accumulated fluorescence intensity ([1]; 3 μM of 5-aza): 1040 | average fluorescence intensity ([1]; 3 μM of 5-aza): 10.93 | fluorescence intensity of the cells after treatment versus before treatment ([1]; fluorescence microscopic images, 1 μM of 5-aza): higher | accumulated fluorescence intensity [2]: 238113
